Ki data for six compounds are collected here from patent US20130072427A1, “GPR 119 MODULATORS” (Pfizer Inc., priority 2009, published 2013).

In general, Ki refers to a measure of affinity in units of concentration, obtained from inhibition or displacement.

Values joined by “and” are separate entries in the source; they are usually repeats but may differ in a detail not shown here. Identical values can stand only once.

The target in this assay is T1, human GPR119 (Homo sapiens, UniProt Q8TDV5).
T1 construct: host or cells: HEK293-CRE beta-lactamase cells
T1 sequence (Q8TDV5 1-335): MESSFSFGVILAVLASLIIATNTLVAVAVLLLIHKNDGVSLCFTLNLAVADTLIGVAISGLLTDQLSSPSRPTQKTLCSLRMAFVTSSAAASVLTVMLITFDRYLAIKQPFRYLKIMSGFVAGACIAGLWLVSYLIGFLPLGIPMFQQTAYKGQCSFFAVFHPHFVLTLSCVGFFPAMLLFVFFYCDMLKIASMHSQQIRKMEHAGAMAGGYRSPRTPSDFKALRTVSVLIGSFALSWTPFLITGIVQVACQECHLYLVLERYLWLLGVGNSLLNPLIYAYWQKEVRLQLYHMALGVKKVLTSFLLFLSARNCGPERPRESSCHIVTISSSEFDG
Kind of assay: GPR119 radioligand binding assay ([3H]Cmpd A, membranes of HEK 293FT cells over-expressing hGPR119). The following applies: competition with 3H-Cmpd A; Ki from IC50 by Cheng-Prusoff; one line per run. The method, then:
HEK 293FT cells (Invitrogen, Carlsbad, Calif.) were grown in a shake flask in 293Freestyle medium (Invitrogen) supplemented with 50 microg/mL neomycin and 10 mM HEPES (37 C, 8% carbon dioxide, shaking). The cells were centrifuged gently (approximately 500×g, 10 minutes) and the pellet resuspended in a mixture of Dulbecco's PBS(minus Mg++/−Ca++) supplemented with 18% fetal bovine serum (Sigma Aldrich) and P1 virus such that the multiplicity of infection (MOI) was 10 and the final cell density was 1.3×10^6/ml (total volume 2.5 liters). The cells were transferred to a 5 liter Wave Bioreactor Wavebag (Wave Technologies, MA) and incubated for 4 hours at 27 degrees Celsius (17 rocks/min, 7 degrees platform angle); at the end of the incubation period, an equal volume (2.5 liters) of 293Freestyle medium supplemented with 30 mM sodium butyrate (Sigma Aldrich) was added (final concentration=15 mM), and the cells were grown for 20 hours (37 degrees Celsius, 8% CO2 [0.2 liters/min}, 25 rocks/minute, 7 degrees platform angle). Cells were harvested via centrifugation (3,000×g, 10 minutes), washed once on DPBS (minus Ca++/Mg++), resuspended in 0.25M sucrose, 25 mM HEPES, 0.5 mM EDTA, pH 7.4 and frozen at −80 degrees Celsius.
The frozen cells were thawed on ice and centrifuged at 700×g (1400 rpm) for 10 minutes at 4 degrees Celsius. The cell pellet was resuspended in 20 ml phosphate-buffered saline, and centrifuged at 1400 rpm for 10 minutes. The cell pellet was then resuspended in homogenization buffer (10 mM HEPES (Gibco #15630), pH 7.5, 1 mM EDTA (BioSolutions, #BIO260-15), 1 mM EGTA (Sigma, #E-4378), 0.01 mg/ml benzamidine (Sigma #B 6506), 0.01 mg/ml bacitracin (Sigma #B 0125), 0.005 mg/ml leupeptin (Sigma #L 8511), 0.005 mg/ml aprotinin (Sigma #A 1153)) and incubated on ice for 10 minutes. Cells were then lysed with 15 gentle strokes of a tight-fitting glass Dounce homogenizer. The homogenate was centrifuged at 1000×g (2200 rpm) for 10 minutes at 4 degrees Celsius. The supernatant was transferred into fresh centrifuge tubes on ice. The cell pellet was resuspended in homogenization buffer, and centrifuged again at 1000×g (2200 rpm) for 10 minutes at 4 degrees Celsius after which the supernatant was removed and the pellet resuspended in homogenization buffer. This process was repeated a third time, after which the supernatants were combined, Benzonase (Novagen #71206) and MgCl2 (Fluka #63020) were added to final concentrations of 1 U/ml and 6 mM, respectively, and incubated on ice for one hour. The solution was then centrifuged at 25,000×g (15000 rpm) for 20 minutes at 4 degrees Celsius, the supernatant was discarded, and the pellet was resuspended in fresh homogenization buffer (minus Benzonase and MgCl2). After repeating the 25,000×g centrifugation step, the final membrane pellet was resuspended in homogenization buffer and frozen at −80 degrees Celsius. The protein concentration was determined using the Pierce BCA protein assay kit (Pierce reagents A #23223 and B #23224).
Test compounds were serially diluted in 100% DMSO (J. T. Baker #922401). 2 microL of each dilution was added to appropriate wells of a 96-well plate (each concentration in triplicate). Unlabeled Cmpd A, at a final concentration of 10 microM, was used to determine non-specific binding.
^3H-Cmpd A was diluted in binding buffer (50 mM Tris-HCl, pH 7.5, (Sigma #T7443), 10 mM MgCl2 (Fluka 63020), 1 mM EDTA (BioSolutions #BIO260-15), 0.15% bovine serum albumin (Sigma #A7511), 0.01 mg/mL benzamidine (Sigma #B 6506), 0.01 mg/mL bacitracin (Sigma #B 0125), 0.005 mg/mL leupeptin (Sigma #L 8511), 0.005 mg/mL aprotinin (Sigma #A 1153)) to a concentration of 60 nM, and 100 microL added to all wells of 96-well plate (Nalge Nunc #267245).
Membranes expressing GPR119 were thawed and diluted to a final concentration of 20 μg/100 microL per well in Binding Buffer, and 100 microL of diluted membranes were added to each well of 96-well plate. […]

In the case of `Cc1c(O[C@H]2CCN(C(=O)OC3(C)CC3)C[C@H]2F)ncnc1N1Cc2cnn(C)c2C1` (racemic) [Example 7, 1-Methylcyclopropyyl (3,4-cis)-3-fluoro-4-{[5-methyl-6-(1-methyl-4,6-dihydropyrrolo[3,4-c]pyrazol-5(1H)-yl)pyrimidin-4-yl]oxy}piperidine-1-carboxylate (racemic)], the Ki is 3.4 nM and 11 nM. Under `CC(C)OC(=O)N1CCC(Oc2ncnc(N3Cc4cnn(C)c4C3)c2C#N)CC1` [Example 3, Isopropyyl 4-{[5-cyano-6-(1-methyl-4,6-dihydropyrrolo[3,4-c]pyrazol-5(1H)-yl)pyrimidin-4-yl]oxy}piperidine-1-carboxylate] stands 233 nM; under `Cc1c(O[C@H]2[C@@H]3COC[C@H]2CN(C(=O)OC(C)(C)C)C3)ncnc1N1Cc2cnn(C)c2C1` [Example 9, tert-Butyl (9-anti)-9-{[5-methyl-6-(1-methyl-4,6-dihydropyrrolo[3,4-c]pyrazol-5(1H)-yl)pyrimidin-4-yl]oxy}-3-oxa-7-azabicyclo[3.3.1]nonane-7-carboxylate], 51 nM.

On to `Cc1c(O[C@H]2CCN(C(=O)OC(C)(C)C)C[C@H]2F)ncnc1N1Cc2cnn(C)c2C1` (racemic) [Example 6, tert-Butyl (3,4-cis)-3-fluoro-4-{[5-methyl-6-(1-methyl-4,6-dihydropyrrolo[3,4-c]pyrazol-5(1H)-yl)pyrimidin-4-yl]oxy}piperidine-1-carboxylate (racemic)], for which the Ki is 36 nM. The same measure for `Cc1c(O[C@H]2CCN(C(=O)OC(C)(C)C)C[C@@H]2F)ncnc1N1Cc2cnn(C)c2C1` (racemic) [Example 8, tert-Butyl (3,4-trans)-3-fluoro-4-{[5-methyl-6-(1-methyl-4,6-dihydropyrrolo[3,4-c]pyrazol-5(1H)-yl)pyrimidin-4-yl]oxy}piperidine-1-carboxylate (racemic)]: 130 nM.

As to `Cc1c(OC2CCN(C(=O)OC(C)C)CC2)ncnc1N1Cc2cnn(C)c2C1` [Example 2, Isopropyyl 4-{[5-methyl-6-(1-methyl-4,6-dihydropyrrolo[3,4-c]pyrazol-5(1H)-yl)pyrimidin-4-yl]oxy}piperidine-1-carboxylate], the Ki was 502 nM and 229 nM and 171 nM.
